Experimental data as given in ChEMBL document CHEMBL3797180, “Squaramides with cytotoxic activity against human gastric carcinoma cells HGC-27: synthesis and mechanism of action” (Medchemcomm, 2016).
The source made the active and inactive calls. No cut-off for these calls is given here.

How the values were obtained:
Format in all cases: functional, cell-based
HeLa [1] = experiment: Cytotoxicity against human HeLa cells assessed as inhibition of cell viability at 100 uM after 24 hrs by MTT assay
HGC-27 [2] = experiment: Cytotoxicity against HGC27 cells assessed as inhibition of cell viability at 100 uM after 24 hrs by MTT assay; details: Homo sapiens
HGC-27 [3] = experiment: Cytotoxicity against HGC27 cells assessed as inhibition of cell viability at 20 uM after 24 hrs by MTT assay; details: Homo sapiens
HeLa [4] = experiment: Cytotoxicity against human HeLa cells assessed as inhibition of cell viability at 20 uM after 24 hrs by MTT assay

Structure (SMILES) | inhibition (HeLa [1]) | inhibition (HGC-27 [2]) | inhibition (HGC-27 [3]) | inhibition (HeLa [4])
COc1c(Nc2cc(F)cc(F)c2)c(=O)c1=O | inactive | inactive |  | 
COc1c(Nc2ccc(C(C)(C)C)cc2)c(=O)c1=O | inactive | inactive |  | 
CCc1cc(C#N)ccc1Nc1c(OC)c(=O)c1=O | inactive | inactive |  | 
C[C@H](c1c(Nc2cc(F)cc(F)c2)c(=O)c1=O)c1cccc2ccccc12 |  |  | Active | Active
COc1c(N(C)c2ccccc2)c(=O)c1=O | inactive | inactive |  | 
COc1c(Nc2ccc(C(F)(F)F)cc2)c(=O)c1=O | inactive | inactive |  | 
O=c1c(Nc2ccc(C(F)(F)F)cc2)c(N[C@@H]2CCCC[C@@H]2N2CCCCC2)c1=O |  |  | inactive | inactive
O=c1c(Nc2cc(F)c(F)c(F)c2)c(N[C@@H]2CCCC[C@H]2N2CCCCC2)c1=O |  |  | inactive | inactive
O=c1c(Nc2cc(C(F)(F)F)cc(C(F)(F)F)c2)c(N[C@@H]2CCCC[C@H]2N2CCCCC2)c1=O | Active | Active | Active | Active
CN(C)[C@@H]1CCCC[C@H]1Nc1c(Nc2cc(C(F)(F)F)cc(C(F)(F)F)c2)c(=O)c1=O | Active | Active | inactive | inactive
COc1c(Nc2ccc([N+](=O)[O-])cc2)c(=O)c1=O | inactive | inactive |  | 
COc1c(N[C@@H](C)c2cccc3ccccc23)c(=O)c1=O | inactive | inactive |  | 
Cc1ccc(S(=O)(=O)N[C@@H]2CCCC[C@H]2Nc2c(Nc3cc(C(F)(F)F)cc(C(F)(F)F)c3)c(=O)c2=O)cc1 | Active | Active | inactive | inactive
COc1c(Nc2cc(OC(C)C)c(Cl)cc2Cl)c(=O)c1=O | inactive | inactive |  | 
COc1c(Nc2ccccc2)c(=O)c1=O | inactive | inactive |  | 
Cc1ccc(S(=O)(=O)N[C@@H]2CCCC[C@H]2Nc2c(NCc3cc(C(F)(F)F)cc(C(F)(F)F)c3)c(=O)c2=O)cc1 | Active | Active | inactive | inactive
C[C@@H](Nc1c(Nc2cc(C(F)(F)F)cc(C(F)(F)F)c2)c(=O)c1=O)c1ccccc1 | Active | Active | inactive | inactive
O=c1c(NCc2cc(C(F)(F)F)cc(C(F)(F)F)c2)c(N[C@@H]2CCCC[C@H]2N2CCCCC2)c1=O | Active | Active |  | 
COc1c(N[C@@H]2CCCC[C@H]2NS(=O)(=O)c2ccc(C)cc2)c(=O)c1=O | inactive | inactive |  | 
O=c1c(Nc2ccc(C(F)(F)F)cc2)c(N[C@@H]2CCCC[C@H]2N2CCCCC2)c1=O |  |  | inactive | inactive
COc1ccc(Nc2c(OC)c(=O)c2=O)cc1 | inactive | inactive |  | 
COc1ccc(Nc2c(OC)c(=O)c2=O)c(OC)c1 | inactive | inactive |  | 
O=c1c(Nc2cc(C(F)(F)F)cc(C(F)(F)F)c2)c(N[C@H]2c3ccccc3C[C@H]2O)c1=O | Active | Active |  | 
C=CC1CN2CCC1CC2[C@@H](Nc1c(NCc2cc(C(F)(F)F)cc(C(F)(F)F)c2)c(=O)c1=O)c1ccnc2ccc(OC)cc12 (some centres not stated) | Active | Active |  | 
COc1c(Nc2cc(F)c(F)c(F)c2)c(=O)c1=O | inactive | inactive |  | 
COc1c(N[C@H]2c3ccccc3C[C@H]2O)c(=O)c1=O | inactive | inactive |  | 
